Assay results: the supplement of paper PMC11451515

Assays:
Assay in all cases: AUC of viability dose-response curve (% viability x log10 dose units); higher = less sensitive
Settings in all cases: 48 h
[1] = test system: NOMO1
In short: (§1)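 In 1536-well plates, leukemia cells adapted to each medium (500 or 1000 cells/well) were exposed for 48 h at 37°C to library compounds in DMSO across 11 threefold doses, 47 μM down to 0.79 nM. Viability was read by CellTiter-Glo One luminescence and normalised per plate to DMSO and cell-free wells. A four-parameter log-logistic fit over log10 doses was integrated by trapezoidal rule. This yielded the area under the curve, with over-full-viability curves scaled and quality-control failures dropped.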

[2] = test system: P12-Ichikawa
In short: as §1

[3] = test system: SEM cells
In short: as §1

[4] = RPMI 5 mM glucose + 10% dialyzed FBS

SMILES | AUC of viability dose-response curve ([1]; HPLM + 10% dialyzed FBS) | AUC of viability dose-response curve ([1]; RPMI 5 mM glucose + 10% FBS) | AUC of viability dose-response curve [1, 4] | AUC of viability dose-response curve ([2]; HPLM + 10% dialyzed FBS) | AUC of viability dose-response curve ([2]; RPMI 5 mM glucose + 10% FBS) | AUC of viability dose-response curve [2, 4] | AUC of viability dose-response curve ([3]; HPLM + 10% dialyzed FBS) | AUC of viability dose-response curve ([3]; RPMI 5 mM glucose + 10% FBS) | AUC of viability dose-response curve [3, 4]
C[S+](=O)([O-])c1cccc(CNc2nc(Nc3ccc4c(c3)CCC(=O)N4)ncc2C(F)(F)F)c1 | 436 | 446 | 454 | 450 | 444 | 451 | 331 | 367 | 355
CC(C)C[C@H](NC(=O)CNC(=O)c1cc(Cl)ccc1Cl)B(O)O | – | – | – | – | – | – | 190 | 190 | 177
C[C@]12CC[C@H]3[C@@H](C\C=C/4C[C@@H](O)CC[C@]34C)[C@@H]1CCC2=O | 439 | 448 | 460 | 449 | 438 | 454 | 468 | 454 | 462
CCC\C1=C\C(=O)NC(=S)N1 | 407 | 421 | 452 | 413 | 399 | 425 | – | – | –
OC(=O)C(CC/1=C/C(=O)NC2=CC=CC=C12)NC(=O)C3=CC=C(Cl)C=C3 (centres undefined) | 469 | 454 | 469 | 468 | 436 | 465 | 447 | 467 | 470
[O-]C(=O)C1=C(C(=C(Cl)C(=C1Cl)Cl)Cl)C/2=C/3\C=C(I)/C(=O)/C(=C3OC4=C2C=C(I)C(=C4I)[O-])I | 474 | 451 | 457 | 446 | 450 | 445 | 466 | 464 | 462
CN1CCN2c3ncccc3Cc3ccccc3C2C1 (centres undefined) | – | – | – | 470 | 460 | 463 | – | – | –
CN1CCC[C@@H]1CCO[C@](C)(c1ccccc1)c1ccc(Cl)cc1 | 466 | 461 | 473 | 463 | 467 | 474 | 469 | 472 | 471
NCCCCNCCCN | 438 | 460 | 460 | 458 | 434 | 445 | 373 | 427 | 388
CC[C@@]1(O)C(=O)OC\C2=C1\C=C\3N(CC4=C3N=C5C=CC=CC5=C4)C2=O | 248 | 241 | 246 | 172 | 164 | 161 | 190 | 158 | 165
COc1ccc2c(c1)c(CC(=O)OCC(=O)O)c(C)n2C(=O)c1ccc(Cl)cc1 | 468 | 439 | 463 | 458 | 436 | 450 | 470 | 432 | 454
Nc1nnc(-c2cccc(Cl)c2Cl)c(N)n1 | – | – | – | – | – | – | 425 | 402 | 418
Cn1c(=O)n(-c2ccc(C(C)(C)C#N)cc2)c2c3cc(-c4cnc5ccccc5c4)ccc3ncc21 | 344 | 354 | 315 | 337 | 315 | 325 | – | – | –
Nc1cccc2c1CN([C@H]1CCC(=O)NC1=O)C2=O | 462 | 428 | 466 | 451 | 448 | 449 | 427 | 390 | 450
COc1ccc(Nc2nccc(NCCO)n2)cc1 | – | – | – | 395 | 386 | 377 | 331 | 376 | 375
COc1cc2nc(-c3cc(F)ccc3O)nc(N[C@@H]3CNC[C@H]3C(C)(C)O)c2cc1OC | 449 | 463 | 455 | 436 | 429 | 410 | 274 | 283 | 227
Cn1cc(/C=C2\C(=O)Nc3cccnc32)c2ccccc21 | 464 | 451 | 449 | 414 | 442 | 437 | 430 | 421 | 415
CCCCC(C=O)NC(=O)C(CC(C)C)NC(=O)OCc1ccccc1 (centres undefined) | 409 | 410 | 424 | 422 | 393 | 377 | 430 | 439 | 393
Cc1[nH]c(/C=C2\C(=O)Nc3ccccc32)c(C)c1CCC(=O)O | 433 | 434 | 457 | 406 | 408 | 419 | 245 | 288 | 236
Cc1cc(Nc2nc(N[C@@H](C)c3ccc(F)cc3)c(C#N)cc2F)n[nH]1 | 414 | 362 | 394 | 396 | 399 | 393 | 367 | 368 | 364
CN1\C(=C(\O)C2=C(C=CC=C2)[S+]1([O-])=O)C(=O)NC3=CC=CC=N3 | 422 | 428 | 461 | 397 | 400 | 425 | – | – | –
CC[C@@]1(O)C(=O)OCC/2=C1/C=C3\N(CC4=CC5=CC(=CC=C5N=C34)O)C2=O | 251 | 261 | 271 | 180 | 176 | 181 | – | – | –
O=C(Nc1ncc(-c2cc(C(F)F)nn2-c2c(Cl)cccc2Cl)s1)C1CC1 | 398 | 381 | 370 | 329 | 326 | 345 | 347 | 333 | 340
CN1C(=O)C[C@H](C(=O)N[C@@H](Cc2cnc[nH]2)C(=O)N2CCC[C@H]2C(N)=O)NC1=O | 462 | 463 | 435 | 462 | 464 | 470 | 456 | 435 | 459
O=C(c1ccc(F)c(F)c1Nc1ccc(I)cc1F)N1CC(O)([C@@H]2CCCCN2)C1 | 305 | 292 | 304 | 410 | 403 | 419 | 410 | 434 | 425

SMILES | AUC of viability dose-response curve ([1]; HPLM + 10% dialyzed FBS) | AUC of viability dose-response curve ([1]; RPMI 5 mM glucose + 10% FBS) | AUC of viability dose-response curve [1, 4] | AUC of viability dose-response curve ([2]; HPLM + 10% dialyzed FBS) | AUC of viability dose-response curve ([2]; RPMI 5 mM glucose + 10% FBS) | AUC of viability dose-response curve [2, 4] | AUC of viability dose-response curve ([3]; HPLM + 10% dialyzed FBS) | AUC of viability dose-response curve ([3]; RPMI 5 mM glucose + 10% FBS) | AUC of viability dose-response curve [3, 4]
CN[C@@H]1Cc2cccc3[nH]c(=O)n(c23)C1 | 455 | 450 | 458 | 449 | 445 | 456 | 442 | 454 | 452
COCCOc1nc(-c2ccc(Cl)c(Cl)c2)n(-c2ccc(NC(=O)CCl)cc2)n1 | 460 | 408 | 433 | 469 | 450 | 421 | 444 | 430 | 430
CN(C)CCOc1ccc(-c2nc(-c3ccncc3)c(-c3ccc4c(c3)CC/C4=N\O)[nH]2)cc1 | 450 | 465 | 437 | 456 | 454 | 452 | 458 | 455 | 466
CC(/C=C/C(=O)NO)=C\[C@@H](C)C(=O)c1ccc(N(C)C)cc1 | 337 | 339 | 336 | 325 | 315 | 316 | 290 | 295 | 292
NC(=O)C1CCCc2c1[nH]c1ccc(Cl)cc21 (centres undefined) | 370 | 401 | 404 | 417 | 436 | 421 | 343 | 381 | 365
Cc1cnc(C(=O)O)c[n+]1[O-] | 400 | 454 | 447 | 460 | 468 | 441 | 450 | 416 | 475
O=C1Nc2ccc(I)cc2/C1=C/c1cc(Br)c(O)c(Br)c1 | 469 | 457 | 448 | 469 | 468 | 458 | 466 | 457 | 451
COc1cc([C@H]2Oc3cc([C@H]4Oc5cc(O)cc(O)c5C(=O)[C@@H]4O)ccc3O[C@@H]2CO)ccc1O | 470 | 465 | 452 | 464 | 446 | 456 | 455 | 473 | 467
COc1cc2nc(N3CCN(C(=O)C4CCCO4)CC3)nc(N)c2cc1OC (centres undefined) | 473 | 471 | 458 | 447 | 470 | 445 | 430 | 460 | 418
COC/1=C/C=C2\C(=C/C1=O)[C@H](CCC3=CC(=C(OC)C(=C23)OC)OC)NC(C)=O | – | – | – | 54.5 | 46.5 | 64.7 | 80.3 | 49.8 | 54.6
CC(C)c1cnn2c(NCc3ccccc3)cc(NCCCCCCN)nc12 | 464 | 470 | 463 | 464 | 442 | 439 | 465 | 416 | 471
C[S+](=O)([O-])c1ccc(C(=O)Nc2ccc(Cl)c(-c3ccccn3)c2)c(Cl)c1 | 445 | 468 | 465 | 464 | 454 | 462 | – | – | –
COC1=C2C[C@@H](C)C[C@H](OC)[C@H](O)[C@@H](C)/C=C(\C)[C@H](OC(N)=O)[C@@H](OC)/C=C/C=C(\C)C(=O)NC(=CC1=O)C2=O | 430 | 438 | 440 | 416 | 410 | 399 | 402 | 396 | 395
CN(C)c1nc(Cc2ccc(NC(=O)c3ccc4ccccc4c3)cc2)nc(Cl)c1CC(=O)O | 377 | 401 | 392 | 440 | 427 | 434 | 461 | 447 | 455
COC[C@H](c1ccc(C(F)(F)F)cc1)N1CCN(C2(C)CCN(C(=O)c3c(C)ncnc3C)CC2)C[C@H]1C.O=C(O)/C=C\C(=O)O | 409 | 411 | 424 | 469 | 454 | 467 | 445 | 410 | 450
COC1=CC=CC(=C1N)\C2=C\C(=O)C3=C(O2)C=CC=C3 | 464 | 466 | 463 | 469 | 459 | 465 | 432 | 428 | 419
CC(C)c1cc(C(=O)N2Cc3ccc(CN4CCN(C)CC4)cc3C2)c(O)cc1O | 320 | 317 | 323 | 374 | 342 | 348 | – | – | –
C[C@]12CC[C@@H]3c4ccc(O)cc4CC[C@H]3[C@@H]1C[C@@H](O)[C@@H]2O | 436 | 463 | 447 | 466 | 468 | 466 | 468 | 419 | 454
CCN(CC)CCCCNc1ncc2c(n1)N(C)C(=O)N(c1c(Cl)c(OC)cc(OC)c1Cl)C2 | 429 | 453 | 451 | 450 | 446 | 448 | 423 | 421 | 422
COc1ccc(C2Sc3ccccc3N(CCN(C)C)C(=O)C2OC(C)=O)cc1 (centres undefined) | 469 | 463 | 460 | 467 | 468 | 445 | 473 | 469 | 474
O=C(Oc1ccc([N+](=O)[O-])cc1)N1CCC(C(O)(c2ccc3c(c2)OCO3)c2ccc3c(c2)OCO3)CC1 | – | – | – | 439 | 432 | 411 | 396 | 379 | 418
CC1(C)CNc2cc(NC(=O)c3cccnc3NCc3ccncc3)ccc21 | 419 | 468 | 470 | 461 | 446 | 455 | – | – | –
CNC[C@H](O)c1cccc(O)c1 | – | – | – | – | – | – | 410 | 388 | 417
CC[C@H](NC(=O)[C@H](C)NC)C(=O)N1C[C@@H](O)C[C@H]1Cc1c(-c2[nH]c3cc(F)ccc3c2C[C@@H]2C[C@H](O)CN2C(=O)[C@H](CC)NC(=O)[C@H](C)NC)[nH]c2cc(F)ccc12 | 347 | 323 | 362 | – | – | – | 469 | 442 | 437
